{"source": "patent US6472157B2", "about": "“Methods for detection of promoter polymorphism in a UGT gene promoter” (Arch Development Corporation, priority 1999, dated 2002)", "key": {"[1]": {"system": "cytochrome P450 enzymes", "experiment": "7-ethoxycoumarin O-deethylation in human liver samples", "assay_type": "in vitro ADME", "settings": "liver samples used in the genotype study", "from_the_text": "To evaluate the functional viability of microsomal drug-metabolizing enzymes in the liver samples used in this study, the livers were screened for 7-ethoxycoumarin O-deethylation, as 7-ethoxycoumarin is oxidized to umbelliferone by multiple cytochrome P450 enzymes. The method used is described by Evans & Relling, J. Chromatogr., 578:141-145 (1992)."}, "[2]": {"system": "UGT", "experiment": "AZT glucuronidation assay in human liver microsomes (control)", "assay_type": "in vitro ADME", "settings": "microsomes from normal humans and CN-1 patients; AZT 5 mM, 1 hour", "experimental": "(§1) To ensure the viability and functional enzymatic activity of the microsomal preparations, the UGT activity toward another substrate, AZT (3′-azido-3′-deoxythymidine) was investigated as a control. Liver microsomes from normal humans, CN-1 patients, normal rats, and Gunn rats were prepared as described above. Investigations were performed in pooled microsomes from normal rats, normal humans and Gunn rats, while microsomes from CN-1 patients were used individually.\n(§2) Microsomes were preincubated with oleolyl lysophosphatidylcholine (OLPC) (0.8% wt/wt. OLPC/microsomal protein) at 4° C. for 20 minutes. The final reaction mixture contained 1 mg/ml preincubated microsomes, AZT (5 mM), MgCl2 (10 mM), 0.2 M Tris-HCl buffer (pH 7.3), and UDPGA (10 mM) in a final volume of 300 μl. After an incubation period of 1 hour at 37° C., the reaction was stopped with the addition of 30 μl of HCl. Proteins were removed after centrifugation at 10,500 g for 5 minutes and 30 μl aliquots of the supernatant were subjected to HPLC analysis and the metabolites were detected in an ultraviolet detector at a wavelength of 265 nm. The mobile phase consisted of a 15:85 mixture of acetonitrile/ammonium phosphate buffer (0.1% vol/vol phosphoric acid, adjusted to pH 2.7 with ammonium hydroxide) used at a flow rate of 1 ml/min. […]"}, "[3]": {"system": "UGT", "experiment": "AZT glucuronidation assay in rat liver microsomes (control)", "assay_type": "in vitro ADME", "settings": "microsomes from normal rats and Gunn rats; AZT 5 mM, 1 hour", "experimental": "as §1, §2"}, "[4]": {"system": "UGT", "experiment": "PNP glucuronidation in human liver microsomes", "assay_type": "in vitro ADME", "settings": "PNP 360 μM, 10 minutes", "experimental": "The formation of glucuronidated PNP was quantified by the following method. […] The reaction was stopped by the addition of 2.8 ml of 0.2 M glycine-NaOH buffer (pH 10.4). Samples were centrifuged at 2,500 rpm for 30 minutes, and UGT activity in the supernatant was analyzed colorimetrically in a spectrophotometer by measuring the disappearance of the substrate at a wavelength of 400 nm."}, "[5]": {"system": "UGT enzymes", "experiment": "SN-38 glucuronidation assay in human liver microsomes", "assay_type": "in vitro ADME", "settings": "for mean SN-38 glucuronidation rate (peak area of SN-38 glucuronide ÷ peak area CPT) {SE}: African Americans liver microsomes", "experimental": "(§3) To investigate which UGT enzymes are responsible for SN-38 glucuronidation, the in vitro metabolism of SN-38 was measured using normal human and rat liver microsomes, as well as microsomes from Gunn rats, Gunn, C. H., J. Hered., 29:137-139 (1938), and patients with Crigler-Najjar type I (CN-1) syndrome. Liver microsomes were prepared from normal humans, CN-1 patients, normal rats, and Gunn rats and assayed for SN-38 glucuronidation. Microsomes from human liver samples medically unsuitable for liver transplantation were acquired under the auspices of the Washington Regional Transplant Consortium. In addition, microsomes were prepared by differential centrifugation methods. Purba, H. S., et al., Br. J. Clin. Pharmaocol. 23:447-453, using human liver samples obtained with the approval of the Institutional Review Boards of institutions involved through the Liver Tissue Procurement and Distribution System. Investigations were performed with pooled microsomes from normal rats, normal humans and Gunn rats, while microsomes from CN-1 patients were used individually.\nMicrosomes (1 mg/ml) were incubated with SN-38 (5 μM), MgCl2 (10 mM), and UDPGA (5 mM) in a 0.1 M Tris-HCl buffer medium (pH 7.4) for 30 minutes at 37° C., in a final volume of 200 μl. After stopping the reaction with 400 μl methanol, the incubation mix was centrifuged at 2,500 rpm for 30 minutes at 4° C. The supernatant was evaporated to dryness under nitrogen and in preparation of analysis by high pressure liquid chromatography (HPLC), the supernatant was reconstituted with 250 μl of a mobile phase consisting of 35% acetonitrile and 65% 0.1 M KH2PO4 containing 3 mM sodium heptane sulphonate (pH 4.0), used at a flow rate of 0.8 ml/min. A C18μ Bondapak column (10 μm, 3.9×300 mm) was used with fluorescence detection at the following wavelengths: 355 nm and 515 nm. 100 μl aliquots of the reconstituted supernatant were injected into an HPLC assay system. CPT was used as the internal standard. […] Retention times were approximately 3.5, 9, and 10 minutes, respectively. The peaks for each of these compounds were confirmed using standards of SN-38G, SN-38, and CPT.\nMicrosomes (1 mg/ml) were obtained from human liver tissue samples and were incubated with SN-38 (5 μM), MgCl2 (10 mM), and UDPGA (5 mM) in a 0.1 M Tris-HCl buffer medium (pH 7.4) for 30 minutes at 37° C., in a final volume of 200 μl. SN-38, SN-38G and the internal standard, CPT, were separated using high performance liquid chromatography (HPLC) coupled to fluorescence detection (ex=355 nm and em=515 nm). SN-38 reaction rates were linear for incubation times up to at least 1.5 hours and for final protein concentrations of up to 2 mg/ml. The results of this analysis, shown in Table 2 below, also include the liver samples of Caucasian origin from the first study. […]"}, "[6]": {"system": "UGT enzymes", "experiment": "SN-38 glucuronidation assay in Gunn rat liver microsomes", "assay_type": "in vitro ADME", "settings": "liver microsomes from Gunn rats", "experimental": "as §3\nMicrosomes (1 mg/ml) were incubated with SN-38 (5 μM), MgCl2 (10 mM), and UDPGA (5 mM) in a 0.1 M Tris-HCl buffer medium (pH 7.4) for 30 minutes at 37° C., in a final volume of 200 μl. […] A C18μ Bondapak column (10 μm, 3.9×300 mm) was used with fluorescence detection at the following wavelengths: 355 nm and 515 nm. […]"}, "[7]": {"target": "T1, human UGT1A1 (Homo sapiens, UniProt P22309)", "T1 sequence (P22309 26-533)": "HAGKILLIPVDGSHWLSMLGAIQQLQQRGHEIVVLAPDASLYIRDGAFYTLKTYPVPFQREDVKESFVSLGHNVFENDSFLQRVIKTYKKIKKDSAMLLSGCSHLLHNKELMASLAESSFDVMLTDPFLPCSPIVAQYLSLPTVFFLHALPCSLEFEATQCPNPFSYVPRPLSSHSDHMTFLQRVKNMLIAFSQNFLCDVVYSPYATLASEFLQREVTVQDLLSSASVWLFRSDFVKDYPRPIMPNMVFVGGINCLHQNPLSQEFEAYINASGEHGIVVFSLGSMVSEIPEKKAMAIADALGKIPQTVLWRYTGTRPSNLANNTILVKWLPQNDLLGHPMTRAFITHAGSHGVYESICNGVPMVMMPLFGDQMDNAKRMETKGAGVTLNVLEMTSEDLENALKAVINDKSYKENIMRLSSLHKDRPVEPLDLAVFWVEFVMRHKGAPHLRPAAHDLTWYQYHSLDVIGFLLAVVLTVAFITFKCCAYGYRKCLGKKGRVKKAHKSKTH", "experiment": "SN-38 glucuronidation by cDNA-expressed UGT1A1 in HK293 cells", "settings": "HK293 cells expressing UGT1A1; increased with increasing protein concentrations", "from_the_text": "(§4) Cell lysates from HK293 cells expressing UGT1A1 (♦), UGT1A4 (□) and UGT2B7 enzymes (Δ), and membrane preparations of HK293 cells expressing UGT1A1 enzyme (●), were screened for SN-38 glucuronidating activity. HK293 cells (⋄) were used as a control. Each data point represents the mean of three separate determinations.\n(§5) To determine which particular isozyme of UGT1 glucuronidates SN-38, HK293 cells transfected with and expressing cDNA encoding selected UGT1 isozymes and a member of the UGT2 family (UGT2B7) were screened for SN-38 glucuronidating activity. Culture media and conditions for stable expression of human UGT1A1, UGT1A4, and UGT2B7 have been described previously. Coffman, et al., Mol. Pharmacol., 47:1101-1105 (1995), Green, et al., Drug Metab. Dispos., 23:299-302 (1995); Coffman, et al., Drug Metab. Dispos., 25:1-4 (1997) all are incorporated herein by reference. Briefly, the XbaI/XhoI and BamHI-XhoI fragments of human UGT1A1, UGT1A4, and UGT2B7 were subcloned into the respective corresponding sites of the mammalian expression vectors pcDNA3, pREP9, and pcDNA3.1. HK293 cells were transfected with the vector-UGT isozyme using the calcium phosphate transfection method. Chen, et al., Biotechniques, 6:632-638 (1988). The cells were then assayed for glucuronidation activity as described above."}, "[8]": {"target": "T2, human UGT1A4 (Homo sapiens, UniProt P22310)", "T2 sequence (P22310 29-534)": "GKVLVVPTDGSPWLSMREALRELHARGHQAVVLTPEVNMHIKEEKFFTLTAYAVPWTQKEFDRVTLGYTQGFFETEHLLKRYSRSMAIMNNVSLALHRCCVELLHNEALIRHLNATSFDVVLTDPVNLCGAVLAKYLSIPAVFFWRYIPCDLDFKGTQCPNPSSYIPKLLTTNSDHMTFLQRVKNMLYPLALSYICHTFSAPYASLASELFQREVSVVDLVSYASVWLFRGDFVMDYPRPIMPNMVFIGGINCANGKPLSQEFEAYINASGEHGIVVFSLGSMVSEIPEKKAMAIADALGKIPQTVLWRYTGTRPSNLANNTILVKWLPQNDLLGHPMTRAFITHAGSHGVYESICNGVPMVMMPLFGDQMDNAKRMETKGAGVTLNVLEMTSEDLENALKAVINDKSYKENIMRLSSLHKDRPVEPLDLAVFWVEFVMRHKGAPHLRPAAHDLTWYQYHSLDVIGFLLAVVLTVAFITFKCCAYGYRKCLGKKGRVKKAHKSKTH", "experiment": "SN-38 glucuronidation by cDNA-expressed UGT1A4 in HK293 cells", "settings": "HK293 cells expressing UGT1A4; up to a protein concentration of 2 mg/ml", "from_the_text": "as §4, §5"}, "[9]": {"target": "T3, human UGT2B7 (Homo sapiens, UniProt P16662)", "T3 sequence (P16662 24-529)": "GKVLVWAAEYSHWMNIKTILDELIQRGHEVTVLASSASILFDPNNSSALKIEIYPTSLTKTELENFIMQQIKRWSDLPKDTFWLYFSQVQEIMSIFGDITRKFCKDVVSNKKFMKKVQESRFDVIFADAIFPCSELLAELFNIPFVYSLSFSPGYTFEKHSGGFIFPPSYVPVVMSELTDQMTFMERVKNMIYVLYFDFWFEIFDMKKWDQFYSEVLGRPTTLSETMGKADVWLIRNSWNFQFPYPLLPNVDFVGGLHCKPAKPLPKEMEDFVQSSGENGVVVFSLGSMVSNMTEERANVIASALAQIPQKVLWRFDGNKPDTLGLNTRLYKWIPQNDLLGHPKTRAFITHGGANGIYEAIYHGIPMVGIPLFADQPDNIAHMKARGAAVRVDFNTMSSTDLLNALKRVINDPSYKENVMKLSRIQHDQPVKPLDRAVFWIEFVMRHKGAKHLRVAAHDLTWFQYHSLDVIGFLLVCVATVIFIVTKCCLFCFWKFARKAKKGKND", "experiment": "SN-38 glucuronidation by cDNA-expressed UGT2B7 in HK293 cells", "settings": "HK293 cells expressing UGT2B7; up to a protein concentration of 2 mg/ml", "from_the_text": "as §4, §5"}, "[10]": {"settings": "relative to Irinotecan; cited from earlier work"}}, "note": "“Also recorded” adds a separate entry of the source."}
{"smiles": "CCOc1ccc2ccc(=O)oc2c1", "note": "[7-ethoxycoumarin]", "values": [{"measurement": "rates of umbelliferone formation (7-ethoxycoumarin O-deethylation)", "setting": "[1]", "value": "within the expected range"}]}
{"smiles": "Cc1cn([C@H]2C[C@H](N=[N+]=[N-])[C@@H](CO)O2)c(=O)[nH]c1=O", "note": "[AZT, 3′-azido-3′-deoxythymidine]", "values": [{"measurement": "in vitro formation of G-AZT", "setting": "[2]", "value": "Intact in vitro formation of G-AZT"}, {"measurement": "in vitro formation of G-AZT", "setting": "[3]", "value": "Intact in vitro formation of G-AZT"}]}
{"smiles": "O=[N+]([O-])c1ccc(O)cc1", "note": "[PNP]", "values": [{"measurement": "rates of PNP glucuronidation (mean±SEM)", "setting": "[4]", "value": "20.39±2.4 nmol PNP glucuronidated/min/mg protein"}, {"measurement": "rates of PNP glucuronidation (range)", "setting": "[4]", "value": "16.48-23.82 nmol PNP glucuronidated/min/mg protein"}]}
{"smiles": "CCc1c2c(nc3ccc(O)cc13)-c1cc3c(c(=O)n1C2)COC(=O)[C@]3(O)CC", "note": "[SN-38, 7-ethyl-10-hydroxycamptothecin]", "values": [{"measurement": "rates of SN-38G formation among individuals (range)", "setting": "[5]; 25 normal human liver microsomes, SN-38 5 μM, 30 minutes, 37° C.", "value": "0.5-26 pmol of SN-38G formed/min/mg microsomal protein"}, {"measurement": "mean SN-38 glucuronidation rate (peak area of SN-38 glucuronide ÷ peak area CPT) {SE}", "setting": "[5]; UGT1A1 promoter genotype 5/7", "value": 0.39}, {"measurement": "mean SN-38 glucuronidation rate (peak area of SN-38 glucuronide ÷ peak area CPT) {SE}", "setting": "[5]; UGT1A1 promoter genotype 6/8", "value": 0.12}, {"measurement": "in vitro SN-38 glucuronidating activity", "setting": "[5]; liver microsomes from CN-1 patients", "value": "no in vitro glucuronidation; also recorded: lack SN-38 glucuronidating activity"}, {"measurement": "in vitro SN-38 glucuronidating activity", "setting": "[6]", "value": "no in vitro glucuronidation; also recorded: lack SN-38 glucuronidating activity"}, {"measurement": "SN-38G formation", "setting": "[7]", "value": "measurable SN-38G formation"}, {"measurement": "SN-38 glucuronidating activity", "setting": "[8]", "value": "lack of SN-38 glucuronidating activity"}, {"measurement": "SN-38 glucuronidating activity", "setting": "[9]", "value": "lack of SN-38 glucuronidating activity"}, {"measurement": "higher antitumor activity than Irinotecan", "setting": "[10]", "value": "100-1,000 fold"}]}
